PubChem BioAssay AID328 (DTP/NCI, 2004)
Values joined by “and” are separate entries in the source; they are usually repeats but may differ in a detail not shown here. Equal entries are not always repeated. Toxic doses and inconclusive results are not listed.

Tested on: BDF1 mice, P388 leukemia ip, median survival T/C
Assay: NCI In Vivo Anticancer Drug Screen. Data for tumor model P388 Leukemia (intraperitoneal) in B6D2F1 (BDF1) mice
Conditions: endpoint: median survival time, higher = longer survival
Outline: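 T/C = treated-group survival ÷ vehicle-control survival; tumour transplanted into mice before dosing.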

[1] = dose: 100.0 mg/kg/injection, schedule: Q04DX003 (ip), vehicle: saline
[2] = dose: 100.0 mg/kg/injection, schedule: Q01DX009 (ip), vehicle: saline with Tween-80
[3] = dose: 100.0 mg/kg/injection, schedule: Q04DX003 (ip), vehicle: saline with Tween-80
[4] = dose: 200.0 mg/kg/injection, schedule: Q01DX009 (ip), vehicle: saline with Tween-80
[5] = dose: 200.0 mg/kg/injection, schedule: Q04DX003 (ip), vehicle: saline with Tween-80
[6] = dose: 400.0 mg/kg/injection, schedule: Q04DX003 (ip), vehicle: saline with Tween-80
[7] = dose: 100.0 mg/kg/injection, schedule: Q01DX001 (ip), vehicle: saline with Tween-80
[8] = dose: 200.0 mg/kg/injection, schedule: Q01DX001 (ip), vehicle: saline with Tween-80
[9] = dose: 400.0 mg/kg/injection, schedule: Q01DX001 (ip), vehicle: saline with Tween-80
[10] = dose: 400.0 mg/kg/injection, schedule: Q01DX009 (ip), vehicle: saline with Tween-80
[11] = dose: 50.0 mg/kg/injection, schedule: Q04DX003 (ip), vehicle: saline
[12] = dose: 50.0 mg/kg/injection, schedule: Q01DX009 (ip), vehicle: saline with Tween-80
[13] = dose: 100.0 mg/kg/injection, schedule: Q04DX003 (ip), vehicle: Klucel (hydroxypropylcellulose) (HPC)
[14] = dose: 200.0 mg/kg/injection, schedule: Q04DX003 (ip), vehicle: Klucel (hydroxypropylcellulose) (HPC)
[15] = dose: 400.0 mg/kg/injection, schedule: Q04DX003 (ip), vehicle: Klucel (hydroxypropylcellulose) (HPC)
[16] = dose: 0.19 mg/kg/injection, schedule: Q01DX009 (ip), vehicle: saline
[17] = dose: 0.39 mg/kg/injection, schedule: Q01DX009 (ip), vehicle: saline

## C#CCOCC(O)CN (configuration not stated)
dose: 100.0 mg/kg/injection, schedule: Q01DX009 (ip), vehicle: saline
  T/C: 100 % of control
[1]
  T/C: 110 % of control
dose: 200.0 mg/kg/injection, schedule: Q01DX009 (ip), vehicle: saline
  T/C: 120 % of control
dose: 200.0 mg/kg/injection, schedule: Q04DX003 (ip), vehicle: saline
  T/C: 100 % of control
dose: 400.0 mg/kg/injection, schedule: Q01DX009 (ip), vehicle: saline
  T/C: 104 % of control
dose: 400.0 mg/kg/injection, schedule: Q04DX003 (ip), vehicle: saline
  T/C: 100 % of control

## CC(=O)OCC(OC(C)=O)C(OC(C)=O)C(OC(C)=O)C(C#N)OC(C)=O (configuration not stated)
dose: 75.0 mg/kg/injection, schedule: Q01DX009 (ip), vehicle: saline with Tween-80
  T/C: 100 % of control
[2]
  T/C: 105 % of control
[3]
  T/C: 100 % of control
dose: 150.0 mg/kg/injection, schedule: Q01DX009 (ip), vehicle: saline with Tween-80
  T/C: 100 % of control
[4]
  T/C: 120 % of control
[5]
  T/C: 100 % of control
[6]
  T/C: 100 % of control

## Cc1ccc(C(O)c2c(C)cc(C)cc2C)c(C)c1 (configuration not stated)
[7]
  T/C: 100 % of control
[8]
  T/C: 100 % of control
[9]
  T/C: 100 % of control

## O=C1c2ccccc2C(=O)N1CCCn1c2ccccc2c2cnccc21
[2]
  T/C: 105 % of control
[3]
  T/C: 95 % of control
[4]
  T/C: 90 % of control
[5]
  T/C: 100 % of control
[10]
  T/C: 110 % of control
[6]
  T/C: 90 % of control

## C=C1CC[N+]2(CC(C)C)CCCC12 (configuration not stated)
dose: 12.5 mg/kg/injection, schedule: Q04DX003 (ip), vehicle: saline
  T/C: 107 % of control
dose: 25.0 mg/kg/injection, schedule: Q04DX003 (ip), vehicle: saline
  T/C: 102 % of control
[11]
  T/C: 106 % of control

## COC1=C(C)C(=O)c2c(c(COC(N)=O)c3n2CC2C3N2C)C1=O (configuration not stated)
dose: 2.0 mg/kg/injection, schedule: Q01DX009 (ip), vehicle: saline sonified
  T/C: 120 % of control

## CC(C)(C)S(=O)(=O)CC(=O)Nc1ccccc1
[7]
  T/C: 96 % of control
[8]
  T/C: 101 % of control
[9]
  T/C: 96 % of control

## c1ccn2c(CSCc3nnc4ccccn34)nnc2c1
[12]
  T/C: 100 % of control
[2]
  T/C: 109 % of control
[4]
  T/C: 109 % of control

## C/C=C1\C[N+]2(C)CCC34c5ccccc5NC32C(O)CC1C4(CO)C(=O)OC (configuration not stated)
dose: 2.0 mg/kg/injection, schedule: Q01DX009 (ip), vehicle: saline with Tween-80
  T/C: 98 % of control
dose: 4.0 mg/kg/injection, schedule: Q01DX009 (ip), vehicle: saline with Tween-80
  T/C: 93 % of control
dose: 8.0 mg/kg/injection, schedule: Q01DX009 (ip), vehicle: saline with Tween-80
  T/C: 94 % of control

## CCN/C(C)=C\C(=O)OCC
[12]
  T/C: 95 % of control
dose: 100.0 mg/kg/injection, schedule: Q01DX009 (ip), vehicle: Klucel (hydroxypropylcellulose) (HPC)
  T/C: 122 % of control
[2]
  T/C: 100 % of control
[13]
  T/C: 100 % of control
dose: 200.0 mg/kg/injection, schedule: Q01DX009 (ip), vehicle: Klucel (hydroxypropylcellulose) (HPC)
  T/C: 111 % of control
[4]
  T/C: 117 % of control
[14]
  T/C: 100 % of control
dose: 266.0 mg/kg/injection, schedule: Q01DX009 (ip), vehicle: Klucel (hydroxypropylcellulose) (HPC)
  T/C: 99 % of control
dose: 400.0 mg/kg/injection, schedule: Q01DX009 (ip), vehicle: Klucel (hydroxypropylcellulose) (HPC)
  T/C: 99 % of control
[10]
  T/C: 111 % of control
[15]
  T/C: 100 % of control

## CC1(C)Oc2nc(N)nc(N)c2C1c1ccc(Cl)cc1 (configuration not stated)
[13]
  T/C: 104 % of control
[14]
  T/C: 100 % of control
[15]
  T/C: 95 % of control

## NOCc1ccsn1
dose: 200.0 mg/kg/injection, schedule: Q04DX003 (ip), vehicle: other
  T/C: 95 % of control
dose: 400.0 mg/kg/injection, schedule: Q04DX003 (ip), vehicle: other
  T/C: 90 % of control

## O=C(O)C1CCSS1 (configuration not stated)
[16]
  T/C: 100 % of control
[17]
  T/C: 91 % of control
dose: 0.78 mg/kg/injection, schedule: Q01DX009 (ip), vehicle: saline
  T/C: 90 % of control and 117 % of control
dose: 1.56 mg/kg/injection, schedule: Q01DX009 (ip), vehicle: saline
  T/C: 96 % of control and 99 % of control
dose: 3.12 mg/kg/injection, schedule: Q01DX009 (ip), vehicle: saline
  T/C: 94 % of control
dose: 6.25 mg/kg/injection, schedule: Q01DX009 (ip), vehicle: saline
  T/C: 94 % of control
dose: 12.5 mg/kg/injection, schedule: Q01DX009 (ip), vehicle: saline
  T/C: 102 % of control and 106 % of control and 108 % of control
dose: 50.0 mg/kg/injection, schedule: Q01DX009 (ip), vehicle: saline
  T/C: 87 % of control and 89 % of control
[11]
  T/C: 103 % of control
[1]
  T/C: 101 % of control

## Cc1cc(Cl)ccc1NC(=O)Oc1nc2ccccc2o1
[12]
  T/C: 123 % of control
[2]
  T/C: 106 % of control
[4]
  T/C: 117 % of control

## [Fe+5].[O-][Cl+3]([O-])([O-])O.[O-]c1ccccc1C=NCCN1CC1.[O-]c1ccccc1C=NCCN1CC1
[3]
  T/C: 100 % of control and 120 % of control
[5]
  T/C: 116 % of control

## O=C(O)c1ccccc1C(=O)Nc1cc(Cl)ccc1Cl
dose: 50.0 mg/kg/injection, schedule: Q04DX003 (ip), vehicle: Klucel (hydroxypropylcellulose) (HPC)
  T/C: 91 % of control
[13]
  T/C: 100 % of control

## COc1cc2c(cc1NC(=O)N(CCCl)N=O)-c1ccccc1C2
dose: 8.3 mg/kg/injection, schedule: Q04DX003 (ip), vehicle: Klucel (hydroxypropylcellulose) (HPC)
  T/C: 108 % of control
dose: 12.0 mg/kg/injection, schedule: Q04DX003 (ip), vehicle: Klucel (hydroxypropylcellulose) (HPC)
  T/C: 113 % of control
dose: 19.0 mg/kg/injection, schedule: Q04DX003 (ip), vehicle: Klucel (hydroxypropylcellulose) (HPC)
  T/C: 154 % of control
dose: 29.0 mg/kg/injection, schedule: Q04DX003 (ip), vehicle: Klucel (hydroxypropylcellulose) (HPC)
  T/C: 154 % of control
dose: 45.0 mg/kg/injection, schedule: Q04DX003 (ip), vehicle: Klucel (hydroxypropylcellulose) (HPC)
  T/C: 172 % of control
dose: 65.0 mg/kg/injection, schedule: Q04DX003 (ip), vehicle: Klucel (hydroxypropylcellulose) (HPC)
  T/C: 190 % of control
[13]
  T/C: 168 % of control
[14]
  T/C: 172 % of control
[15]
  T/C: 209 % of control

## O=C(Nc1ccccc1)Oc1ccc(Cl)cc1
[13]
  T/C: 104 % of control
[14]
  T/C: 95 % of control
[15]
  T/C: 109 % of control

## OC1CCCC2CCCNC12 (configuration not stated) (tested in a mixture with another compound)
dose: 25.0 mg/kg/injection, schedule: Q01DX009 (ip), vehicle: saline with Tween-80
  T/C: 88 % of control
[12]
  T/C: 103 % of control
[2]
  T/C: 100 % of control

## CC1(C)OC(C)(C)c2c1nnc(-c1ccccc1[N+](=O)[O-])[n+]2[O-]
dose: 50.0 mg/kg/injection, schedule: Q01DX005 (ip), vehicle: saline with Tween-80
  T/C: 93 % of control
dose: 100.0 mg/kg/injection, schedule: Q01DX005 (ip), vehicle: saline with Tween-80
  T/C: 88 % of control
dose: 200.0 mg/kg/injection, schedule: Q01DX005 (ip), vehicle: saline with Tween-80
  T/C: 86 % of control

## CCCCCCCCCCCCCCCC[N+]1(CC)CCCC1
[16]
  T/C: 120 % of control
[17]
  T/C: 104 % of control

## COC1(c2ccco2)OC1(C)C (configuration not stated)
dose: 5.0 mg/kg/injection, schedule: Q01DX009 (ip), vehicle: Klucel (hydroxypropylcellulose) (HPC)
  T/C: 86 % of control
dose: 5.0 mg/kg/injection, schedule: Q04DX003 (ip), vehicle: saline
  T/C: 109 % of control
dose: 10.0 mg/kg/injection, schedule: Q01DX009 (ip), vehicle: Klucel (hydroxypropylcellulose) (HPC)
  T/C: 86 % of control
dose: 10.0 mg/kg/injection, schedule: Q04DX003 (ip), vehicle: saline
  T/C: 109 % of control
dose: 20.0 mg/kg/injection, schedule: Q01DX009 (ip), vehicle: Klucel (hydroxypropylcellulose) (HPC)
  T/C: 90 % of control
dose: 20.0 mg/kg/injection, schedule: Q04DX003 (ip), vehicle: saline
  T/C: 104 % of control

## COc1c(O)c(O)c2c3c(c(O)c4c2c1C(=O)C=C4C)C(C)(C)C(C)O3 (configuration not stated)
dose: 50.0 mg/kg/injection, schedule: Q04DX001 (ip), vehicle: saline
  T/C: 104 % of control
dose: 100.0 mg/kg/injection, schedule: Q04DX001 (ip), vehicle: saline
  T/C: 100 % of control
dose: 200.0 mg/kg/injection, schedule: Q04DX001 (ip), vehicle: saline
  T/C: 100 % of control
